Measured values published in ChEMBL document CHEMBL5726766, “Sulfonamide compounds as voltage-gated sodium channel modulators” (2019).

experiment: Membrane potential dye assay: HEK-293 cells overexpressing the channel of interest were seeded in a 96-well plate at a density of 30000 cells/well and incubated at 37° C./5% CO2 for 48 hr. The assay was carried out using the Red Membrane Potential Dye (Molecular Devices) following the manufacturer's instructions. Briefly, the cells were incubated with 1× red membrane potential dye for 1.5 hour. The cells were then treated with various concentrations of the test compounds for 15-20 min followed by depolarization with 10-30 μM Veratridine. The fluorescence was read following excitation at 510-545 nm and emission at 565-625 nm in FLIPR. The “max-min” fluorescence values were used to calculate the % inhibition.; details: HEK293

SMILES	IC50 [µM]
O=S(=O)(Nc1cccc(F)n1)c1ccc2c(c1)OCC[C@@H]2c1ccc(C(F)(F)F)cc1-n1cccn1	> 10
O=S1(=O)CCN(c2cc(C(F)(F)F)ccc2[C@H]2CCOc3cc(S(=O)(=O)Nc4cccc(F)n4)ccc32)CC1 (racemic)	> 10
O=C(O)c1ccc(-c2cc(C(F)(F)F)ccc2[C@@H]2CCOc3cc(S(=O)(=O)Nc4ncc(F)cn4)ccc32)cc1	> 10
COCCc1cc(C(F)(F)F)ccc1[C@H]1CCOc2cc(S(=O)(=O)Nc3cccnn3)ccc21 (racemic)	> 10
CS(=O)(=O)CCc1cc(C(F)(F)F)ccc1[C@@H]1CCOc2cc(S(=O)(=O)Nc3ncccn3)ccc21	> 10
O=S(=O)(Nc1cccc(F)n1)c1ccc2c(c1)OCC[C@H]2c1ccc(C(F)(F)F)cc1-n1ccnn1	> 10
CS(=O)(=O)CCc1cc(C(F)(F)F)ccc1[C@H]1CCOc2cc(S(=O)(=O)Nc3ccncn3)ccc21	> 10
O=S(=O)(Nc1cccc(F)n1)c1ccc2c(c1)OCC[C@H]2c1ccc(C(F)(F)F)cc1-n1cccn1	> 10
O=S(=O)(Nc1cccnn1)c1ccc2c(c1)OCC[C@H]2c1ccc(C(F)(F)F)cc1-c1ccc(F)nc1	> 10
Cc1ccnc(NS(=O)(=O)c2ccc3c(c2)OCC[C@H]3c2ccc(C(F)(F)F)cc2-c2ccnn2C)n1	> 10
O=C1COCCN1c1cc(C(F)(F)F)ccc1[C@H]1CCOc2cc(S(=O)(=O)Nc3ncccn3)ccc21	> 10
O=S(=O)(Nc1ncc(F)cn1)c1ccc2c(c1)OCC[C@H]2c1ccc(C(F)(F)F)cc1-n1ccnn1	> 10
O=S(=O)(Nc1cccnn1)c1ccc2c(c1)OCC[C@H]2c1ccc(C(F)(F)F)cc1OC1CCOCC1	> 10
Cc1nc(-c2cc(C(F)(F)F)ccc2[C@@H]2CCOc3cc(S(=O)(=O)Nc4ncccn4)ccc32)cs1	> 10
Cn1nccc1-c1cc(C(F)(F)F)ccc1[C@@H]1CCOc2cc(S(=O)(=O)Nc3cccnc3F)ccc21	> 10
CCCc1cc(C(F)(F)F)ccc1[C@H]1CCOc2cc(S(=O)(=O)Nc3ncc(F)cn3)ccc21	> 10
O=S(=O)(Nc1ccncn1)c1ccc2c(c1)OCC[C@H]2c1ccc(C(F)(F)F)cc1-c1ccc(F)cc1	> 10
O=S(=O)(Nc1ccncn1)c1ccc2c(c1)OCC[C@H]2c1ccc(C(F)(F)F)cc1-n1ccnn1	> 10
Cn1nccc1-c1cc(C(F)(F)F)ccc1[C@H]1CCOc2cc(S(=O)(=O)Nc3ccncn3)ccc21	> 10
O=C(O)c1ccc(-c2cc(C(F)(F)F)ccc2[C@H]2CCOc3cc(S(=O)(=O)Nc4cccc(F)n4)ccc32)cc1 (racemic)	> 10

SMILES	IC50 [µM]
CCOc1ccc(-c2cc(C(F)(F)F)ccc2[C@H]2CCOc3cc(S(=O)(=O)Nc4ncc(F)cn4)ccc32)cn1	> 10
O=C(O)c1ccc(-c2cc(C(F)(F)F)ccc2[C@H]2CCOc3cc(S(=O)(=O)Nc4ncccn4)ccc32)cc1	> 10
O=S(=O)(Nc1ncc(F)cn1)c1ccc2c(c1)OCC[C@H]2c1ccc(C(F)(F)F)cc1-c1ccc(F)nc1	> 10
O=S(=O)(Nc1ncc(F)cn1)c1ccc2c(c1)OCC[C@@H]2c1ccc(C(F)(F)F)cc1OC1COC1 (racemic)	> 10
Cc1nc(-c2cc(C(F)(F)F)ccc2[C@H]2CCOc3cc(S(=O)(=O)Nc4ncccn4)ccc32)cs1	> 10
O=S(=O)(Nc1ncc(F)cn1)c1ccc2c(c1)OCC[C@@H]2c1ccc(C(F)(F)F)cc1-n1ccnn1	> 10
O=S(=O)(Nc1ncccn1)c1ccc2c(c1)OCC[C@H]2c1ccc(C(F)(F)F)cc1C1CCOCC1	> 10
O=S(=O)(Nc1cccc(F)n1)c1ccc2c(c1)OCC[C@H]2c1ccc(C(F)(F)F)cc1-c1ccc(F)cc1	> 10
O=S(=O)(Nc1ccncn1)c1ccc2c(c1)OCC[C@@H]2c1ccc(C(F)(F)F)cc1-c1ccc(F)cc1	> 10
O=S(=O)(Nc1cccnn1)c1ccc2c(c1)OCC[C@@H]2c1ccc(C(F)(F)F)cc1-n1ccnn1	> 10
O=S(=O)(Nc1cccc(F)n1)c1ccc2c(c1)OCC[C@@H]2c1ccc(C(F)(F)F)cc1-n1ccnn1	> 10
CS(=O)(=O)CCc1cc(C(F)(F)F)ccc1[C@@H]1CCOc2cc(S(=O)(=O)Nc3ncc(F)cn3)ccc21	> 10
CCCc1cc(C(F)(F)F)ccc1[C@@H]1CCOc2cc(S(=O)(=O)Nc3ncc(F)cn3)ccc21	> 10
COCCCCc1cc(C(F)(F)F)ccc1[C@@H]1CCOc2cc(S(=O)(=O)Nc3ncccn3)ccc21	> 10
O=S(=O)(Nc1ncc(F)cn1)c1ccc2c(c1)OCC[C@@H]2c1ccc(C(F)(F)F)cc1CCC(F)F (racemic)	> 10
O=S(=O)(Nc1ccncn1)c1ccc2c(c1)OCC[C@H]2c1ccc(C(F)(F)F)cc1OC1CCOCC1	> 10
Cn1nccc1-c1cc(C(F)(F)F)ccc1[C@H]1CCOc2cc(S(=O)(=O)Nc3cnccn3)ccc21	> 10
O=S(=O)(Nc1cccc(F)n1)c1ccc2c(c1)OCC[C@H]2c1ccc(C(F)(F)F)cc1OC1CCOCC1	3.65
CC(C)Oc1cccc(NS(=O)(=O)c2ccc3c(c2)OCC[C@H]3c2ccc(C(F)(F)F)cc2-c2ccnn2C)n1	> 10
O=S(=O)(Nc1ncccn1)c1ccc2c(c1)OCC[C@@H]2c1ccc(C(F)(F)F)cc1Cl (racemic)	> 10

SMILES	IC50 [µM]
O=S(=O)(Nc1ncccn1)c1ccc2c(c1)OCC[C@H]2c1ccc(C(F)(F)F)cc1OC1COC1	> 10
O=S(=O)(Nc1ncc(F)cn1)c1ccc2c(c1)OCC[C@H]2c1ccc(C(F)(F)F)cc1OC1CCOCC1	> 10
O=C(O)c1ccc(-c2cc(C(F)(F)F)ccc2[C@H]2CCOc3cc(S(=O)(=O)Nc4cccnn4)ccc32)cc1 (racemic)	> 10
CC(C)Oc1ccc([C@H]2CCOc3cc(S(=O)(=O)Nc4cccc(F)n4)ccc32)c(-c2ccnn2C)c1	> 10
COc1cc(C(F)(F)F)ccc1[C@H]1CCOc2cc(S(=O)(=O)Nc3ncccn3)ccc21	> 10
O=S(=O)(Nc1cccnn1)c1ccc2c(c1)OCC[C@@H]2c1ccc(C(F)(F)F)cc1Cl (racemic)	> 10
O=C1CCCN1c1cc(C(F)(F)F)ccc1[C@H]1CCOc2cc(S(=O)(=O)Nc3ccncn3)ccc21 (racemic)	> 10
Cn1nccc1-c1cc(Cl)ccc1[C@H]1CCOc2cc(S(=O)(=O)Nc3cccc(F)n3)ccc21	> 10
O=S(=O)(Nc1ncccn1)c1ccc2c(c1)OCC[C@H]2c1ccc(C(F)(F)F)cc1N1CCOCC1	> 10
Cn1nccc1-c1cc(C(F)(F)F)ccc1[C@@H]1CCOc2cc(S(=O)(=O)Nc3ccncn3)ccc21	> 10
CS(=O)(=O)CCc1cc(C(F)(F)F)ccc1[C@@H]1CCOc2cc(S(=O)(=O)Nc3ccncn3)ccc21	> 10
O=S(=O)(Nc1ccncn1)c1ccc2c(c1)OCC[C@@H]2c1ccc(C(F)(F)F)cc1-n1ccnn1	> 10
O=S(=O)(Nc1ccncn1)c1ccc2c(c1)OCC[C@@H]2c1ccc(C(F)(F)F)cc1Cl (racemic)	> 10
Cc1nc(-c2cc(C(F)(F)F)ccc2[C@H]2CCOc3cc(S(=O)(=O)Nc4cccnn4)ccc32)cs1	> 10
CC(C)Oc1ccc([C@@H]2CCOc3cc(S(=O)(=O)Nc4cccc(F)n4)ccc32)c(-c2ccnn2C)c1	> 10
O=S(=O)(Nc1cccc(F)n1)c1ccc2c(c1)OCC[C@@H]2c1ccc(C(F)(F)F)cc1CCF (racemic)	> 10
COCCCOc1cc(C(F)(F)F)ccc1[C@@H]1CCOc2cc(S(=O)(=O)Nc3ncccn3)ccc21	> 10
CS(=O)(=O)CCc1cc(C(F)(F)F)ccc1[C@H]1CCOc2cc(S(=O)(=O)Nc3ncccn3)ccc21	> 10
